Values of other authors, collected in article PMC6851657 (Clinical Pharmacology and Therapeutics, 2019).

Details: ref fluconazole SimCYP compound file V16; cited from earlier work

Q: Which “CL following i.v. administration” value does the source give for `OC(Cn1cncn1)(Cn1cncn1)c1ccc(F)cc1F` [Fluconazole, fluconazole] here?
A: 1.01 L/h

Q: And the “In vivo renal clearance in a 20–30 year healthy man” value?
A: 0.7 L/h

Q: What about the “Volume of distribution at steady state” value of the same compound?
A: 0.748 L/kg
